Values joined by “and” are separate entries in the source; they are usually repeats but may differ in a detail not shown here. Equal values may be shown once. “Also recorded” adds a separate entry of the source. Ends that are not written are not given here.
Tests used:
[1] = Animal acute toxicity test, maximal tolerable dose (MTD); format: in vivo, ICR mice; conditions: for Mice weight: 700 mg/kg BW dose group
Procedure: Embodiment 8 Animal Acute Toxicity Test—Maximal Tolerable Dose (MTD)
I. Experimental Conditions: GLP
1. Test animal: Healthy adult ICR mice, male, weight 19-20 g, n=10;
3. Test sample preparation method;
4. Administration route: tail vein injection in mice;
5. Dosing volume: 0.5 ml/time;
6. Frequency of administration: in accordance with FDA guidelines;
Acute toxicity refers to the toxic reaction produced by a drug within a certain period of time after a single dose or multiple-dose within 24 hours. In narrow sense, a single dose toxicity study is to investigate the acute toxic reactions after a single administration of a test substance. This guideline refers to single dose toxicity study in a broad sense, which can be obtained by single or multiple dosing within 24 hours;
II. Detection of Maximal Tolerable Dose (MTD)
Firstly, the working solutions at three concentrations that would not cause the death of test animals were prepared, and one animal was injected via tail veins (1.5 mL, by 3 times). The first dose was 1.5 mL of working solution with 1150 mg/kgBW, which was injected to mice by 3 times via tail veins within 24 hours. On the next day, if no death was found, the remaining 9 animals were injected with the same dose via tail veins (a total of n=10); if the first animal died, the dose would be reduced.

[2] = Body weight and death of tumor-bearing nude mice in the in vivo efficacy test; design: species or system BALB/c nude mice; conditions: each treatment group, 4 weeks intravenous administration
Procedure: 4-1. Nude mice were randomly divided into 5 groups: model group, positive control group, sp4 low-dose group, sp4 medium-dose group, and sp4 high-dose group, 6 mice each group (low-dose group: 4 mg/kgBW; medium-dose group: 8 mg/kgBW; high-dose group: 16 mg/kgBW; model group: injected with an equal volume of normal saline; positive control group: injected with paclitaxel at 10 mg/kgBW; administrated twice a week).
4-2. after divided into groups, animals were injected via tail veins at 4:00 pm every day; mice in the model group and the administration group were respectively injected with normal saline and drugs for 4 weeks, and the paclitaxel group was administered paclitaxel twice a week.
4-3, measured the tumor size and body weight on the day of grouping and every other day; TV=0.5*a*b^2, a represents long diameter, b represents short diameter.

[3] = test system: subcutaneous human osteosarcoma MG-63 xenograft tumor; assay: Detection of human osteosarcoma MG-63 cell cycle in nude mice; format: in vivo; conditions: positive control Paclitaxel group (10 mg/kgBW twice a week)
Procedure: (B) Detection of Human Osteosarcoma MG-63 Cell Cycle in Nude Mice
1. Preparation of Single Cell Suspension of Solid Tumor
1.1 Tumor block was washed 3 times with PBS buffer and cut into small blocks (1-2 mm), then washed 3 times with PBS, and transferred into a 50 ml centrifuge tube.
1.2 0.25% trypsin solution was added to digested at 37′C for 20-40 min, and gently shaken once every 5 min, to separate cells. 1.3 2 to 5 ml of serum-containing medium was added to terminate the trypsin digestion.
1.4 The suspension was stood for 2-3 min, and transferred to a new centrifuge tube, and filtered with a 200-mesh nylon mesh twice.
1.5 The filtered suspension was centrifuged at 1000 rpm for 5 min, and removed the supernatant.
1.6 5 ml of PBS buffer was added to centrifuge again, and removed the supernatant.
1.7 1 to 2 ml of culture solution was added according to the amount of cells, and the cells were counted for standby.
2. Detection of Cell Cycle
1) The cell culture solution was collected into a centrifuge tube for standby. […]
5) Flow cytometry detection and analysis: the red fluorescence was detected by a flow cytometer at the excitation wavelength of 488 nm, and the light scattering was detected also. […]

With FLFSLIPSAISG [sp4] the Mice weight ([1]; individual mice No. 1-10, 2018 May 15) was 20.5 g and 20.2 g (2×) and 20.6 g and 20.7 g and 20.4 g and 20.9 g and 20.1 g and 20 g and 20.3 g, the Mice weight ([1]; individual mice No. 1-10, 2018 May 16) was 20.5 g (3×) and 20.7 g and 21.3 g and 21.2 g and 20.8 g and 20.4 g (2×) and 21.5 g and the Mice weight ([1]; individual mice No. 1-10, 2018 May 17) was 21.1 g (3×) and 21.7 g and 21.3 g and 21.4 g and 20.8 g (2×) and 22.2 g and 21.2 g. For the same compound, the Mice weight ([1]; individual mice No. 1-10, 2018 May 18) was 21.5 g (3×) and 22.1 g and 21.9 g (3×) and 21.7 g and 22.7 g and 21.1 g, the Mice weight ([1]; individual mice No. 1-10, 2018 May 19) was 21.9 g and 21.6 g and 22.6 g (2×) and 22.5 g (3×) and 21.8 g (2×) and 23 g and the Mice weight ([1]; individual mice No. 1-10, 2018 May 20) was 22.3 g and 22.8 g (5×) and 22.4 g and 23.7 g and 22.9 g and 22.5 g. For the same compound, the Mice weight ([1]; individual mice No. 1-10, 2018 May 21) was 22.7 g and 22.9 g (2×) and 23.5 g and 23.1 g (3×) and 24.1 g and 23.3 g and 23.4 g, the Mice weight ([1]; individual mice No. 1-10, 2018 May 22) was 23.3 g and 23.5 g (2×) and 24.1 g and 23.6 g and 23.2 g and 24.8 g and 23.8 g (2×) and 23.4 g and the Mice weight ([1]; individual mice No. 1-10, 2018 May 23) was 24.0 g and 24.1 g (2×) and 24.8 g and 24.2 g (2×) and 23.7 g and 25.1 g and 24.5 g and 24.4 g. The Mice weight ([1]; individual mice No. 1-10, 2018 May 24) was 24.7 g (4×) and 25.2 g and 23.9 g and 25.6 g and 25.1 g and 24.8 g and 24.6 g, the Mice weight ([1]; individual mice No. 1-10, 2018 May 25) was 25.3 g and 25.5 g (2×) and 25.8 g and 25.1 g (3×) and 24.8 g and 26.1 g and 24.9 g and the Mice weight ([1]; individual mice No. 1-10, 2018 May 26) was 25.8 g and 25.9 g (3×) and 26.3 g and 25.6 g (2×) and 25.2 g and 26.5 g and 25.5 g. The Mice weight ([1]; individual mice No. 1-10, 2018 May 27) was 26.1 g and 26.2 g (2×) and 26.8 g and 26.3 g (2×) and 26.4 g and 27.2 g and 26 g and 25.8 g, the Mice weight ([1]; individual mice No. 1-10, 2018 May 28) was 27.2 g and 27.1 g and 27.3 g and 26.9 g and 26.8 g (3×) and 27.7 g and 26.4 g and 26.6 g and the Mice weight ([1]; individual mice No. 1-10, 2018 May 29) was 28.1 g and 27.9 g and 28.5 g and 27.2 g and 27.6 g and 27.5 g (2×) and 28.3 g and 27.1 g (2×). For the same compound, the “Survival Rate %” value ([1]; 700 mg/kg, 3 times/9 h, n=10) was 100%, the “toxic reactions and deaths within 2 weeks after administration” value ([1]; ICR mice, 700 mg/kgBW intravenous) was “no toxic reactions and deaths occurred; also recorded: no behavioral abnormalities and deaths were observed” and the “toxic reactions and deaths within 24 hours” value ([1]; ICR mice, 700 mg/kgBW intravenous, three times within 24 h) was “no toxic reactions and deaths occurred; also recorded: no toxic reaction and death were observed”. For the same compound, the Survival or not ([1]; individual animals No. 1-10, 700 mg/kg, 3 times/9 h) was “Survival”, the MTD at 336 h ([1]; male, mouse, in vivo, iv, ICR mice, tail vein injection, administered by three times within 24 h) was 700 mg/kg and the “death in the in vivo efficacy test” value [2] was “no death occurred”. The “weight gain of tumor-bearing nude mice vs control group” value ([2]; P>0.05) was “not significantly different”.

In the case of `CC(=O)O[C@H]1C(=O)[C@@]2(C)[C@H]([C@H](OC(=O)c3ccccc3)[C@]3(O)C[C@H](OC(=O)[C@H](O)[C@@H](NC(=O)c4ccccc4)c4ccccc4)C(C)=C1C3(C)C)[C@]1(OC(C)=O)CO[C@@H]1C[C@@H]2O` [Paclitaxel], the “cell cycle effect in subcutaneous human osteosarcoma xenograft tumor models” value [3] is reported as “significant G1 phase arrest”.

Source: patent US11939399B2, “Synthetic peptide sp4 and use thereof” (TAIAN CITY QIHANG BIOTECHNOLOGY CO., priority 2018, dated 2024)
